Laboratory results reported in PMC9117149, “USP14-regulated allostery of the human proteasome by time-resolved cryo-EM” (Nature, 2022).
Numbered stars: 1 amine (or outer) side, 2 acyl side, 3 side chain; on linkers, the order of the positions; unused ones are H or OH. Peptide text beside a SMILES is read from it. * marks the point of attachment. AMC = Cc1cc(=O)oc2cc(N*)ccc12; Suc = O=C(CCC(=O)[*:2])[*:1]

Tests used:
[1] = test system: T1, human 26S proteasome, AAA-ATPase motor (RPT1-RPT6); settings: 0.5 mM ATP, 5 mM MgCl2, pH 7.5, 37 °C, with 300 nM Ubn-Sic1PY and RPN13; USP14-free
T1 construct: gene PSMC2

[2] = molecular target: T2, human 26S proteasome (peptidase activity) (Homo sapiens, UniProt P28074); assay: AMC fluorescence; assay type: biochemical; settings: 10 μM substrate, 0.1 mM ATP, 0.5 mM MgCl2, 100 mM KCl, pH 7.5, 37 °C; USP14-free (also with USP14 variants)
T2 construct: gene PSMB5; 20S core particle; with Proteasome subunit beta type-1; Proteasome subunit beta type-2; Proteasome subunit beta type-3; Proteasome subunit beta type-4; Proteasome subunit beta type-6; Proteasome subunit beta type-7
T2 sequence (P28074 60-263): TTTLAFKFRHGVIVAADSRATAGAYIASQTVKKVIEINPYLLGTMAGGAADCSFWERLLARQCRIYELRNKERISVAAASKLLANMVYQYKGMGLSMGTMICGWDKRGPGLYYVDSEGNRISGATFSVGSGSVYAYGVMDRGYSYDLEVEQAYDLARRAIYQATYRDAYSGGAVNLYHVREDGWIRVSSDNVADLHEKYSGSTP

T1 sequence (P35998 2-433): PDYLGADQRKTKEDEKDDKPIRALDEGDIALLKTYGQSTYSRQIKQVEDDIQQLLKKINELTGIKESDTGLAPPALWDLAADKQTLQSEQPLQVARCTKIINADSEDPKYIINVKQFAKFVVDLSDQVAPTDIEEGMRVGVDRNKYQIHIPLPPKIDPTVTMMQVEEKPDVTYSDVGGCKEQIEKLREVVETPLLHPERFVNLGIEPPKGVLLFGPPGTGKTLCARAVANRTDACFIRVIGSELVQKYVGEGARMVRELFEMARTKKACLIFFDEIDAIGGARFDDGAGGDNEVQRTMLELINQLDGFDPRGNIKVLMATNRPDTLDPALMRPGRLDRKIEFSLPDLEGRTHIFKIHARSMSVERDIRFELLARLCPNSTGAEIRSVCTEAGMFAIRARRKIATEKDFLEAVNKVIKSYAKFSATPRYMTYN
T1 sequence (P62191 2-440, further chain): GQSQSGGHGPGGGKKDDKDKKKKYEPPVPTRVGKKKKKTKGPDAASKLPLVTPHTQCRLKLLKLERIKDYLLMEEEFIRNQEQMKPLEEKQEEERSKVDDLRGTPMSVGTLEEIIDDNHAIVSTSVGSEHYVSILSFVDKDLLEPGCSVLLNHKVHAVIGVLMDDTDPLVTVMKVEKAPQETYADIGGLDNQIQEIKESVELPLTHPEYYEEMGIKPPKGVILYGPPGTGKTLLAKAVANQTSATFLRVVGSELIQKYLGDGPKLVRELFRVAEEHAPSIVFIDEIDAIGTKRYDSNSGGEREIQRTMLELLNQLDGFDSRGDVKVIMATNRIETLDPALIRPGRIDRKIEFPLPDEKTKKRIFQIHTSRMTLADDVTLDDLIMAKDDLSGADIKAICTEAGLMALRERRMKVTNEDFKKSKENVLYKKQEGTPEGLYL
T1 sequence (P43686 whole entry, further chain): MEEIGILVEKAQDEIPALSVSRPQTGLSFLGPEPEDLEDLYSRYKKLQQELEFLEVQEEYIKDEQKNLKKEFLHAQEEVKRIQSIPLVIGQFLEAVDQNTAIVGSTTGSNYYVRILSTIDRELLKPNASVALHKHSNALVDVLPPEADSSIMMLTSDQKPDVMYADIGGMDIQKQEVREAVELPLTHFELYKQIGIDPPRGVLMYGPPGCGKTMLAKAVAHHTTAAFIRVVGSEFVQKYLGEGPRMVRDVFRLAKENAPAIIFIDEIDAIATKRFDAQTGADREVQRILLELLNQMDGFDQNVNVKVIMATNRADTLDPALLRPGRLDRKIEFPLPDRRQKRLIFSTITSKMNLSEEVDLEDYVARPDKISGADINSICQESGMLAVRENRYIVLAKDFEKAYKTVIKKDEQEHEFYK
T1 sequence (P62333 whole entry, further chain): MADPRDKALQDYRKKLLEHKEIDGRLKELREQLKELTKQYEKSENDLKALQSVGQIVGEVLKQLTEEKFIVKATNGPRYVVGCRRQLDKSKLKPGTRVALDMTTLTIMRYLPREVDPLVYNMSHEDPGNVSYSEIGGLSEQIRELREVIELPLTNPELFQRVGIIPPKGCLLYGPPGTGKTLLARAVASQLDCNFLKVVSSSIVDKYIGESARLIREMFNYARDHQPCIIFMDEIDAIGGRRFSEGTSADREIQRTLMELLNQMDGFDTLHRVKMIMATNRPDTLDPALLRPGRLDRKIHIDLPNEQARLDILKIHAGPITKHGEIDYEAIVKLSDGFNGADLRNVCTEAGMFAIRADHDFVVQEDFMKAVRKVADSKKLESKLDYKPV
T1 sequence (P17980 whole entry, further chain): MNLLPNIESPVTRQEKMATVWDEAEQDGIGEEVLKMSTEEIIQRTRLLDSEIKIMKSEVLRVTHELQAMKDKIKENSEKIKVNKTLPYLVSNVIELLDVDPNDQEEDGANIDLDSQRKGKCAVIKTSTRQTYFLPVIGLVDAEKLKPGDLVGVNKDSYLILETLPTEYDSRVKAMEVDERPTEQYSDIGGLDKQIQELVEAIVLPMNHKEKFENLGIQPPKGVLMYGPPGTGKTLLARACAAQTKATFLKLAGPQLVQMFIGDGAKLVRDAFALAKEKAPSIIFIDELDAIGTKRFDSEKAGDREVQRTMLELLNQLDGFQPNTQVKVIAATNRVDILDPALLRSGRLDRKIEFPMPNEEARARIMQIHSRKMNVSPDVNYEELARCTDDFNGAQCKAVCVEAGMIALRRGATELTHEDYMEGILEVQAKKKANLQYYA
T1 sequence (P62195 2-406, further chain): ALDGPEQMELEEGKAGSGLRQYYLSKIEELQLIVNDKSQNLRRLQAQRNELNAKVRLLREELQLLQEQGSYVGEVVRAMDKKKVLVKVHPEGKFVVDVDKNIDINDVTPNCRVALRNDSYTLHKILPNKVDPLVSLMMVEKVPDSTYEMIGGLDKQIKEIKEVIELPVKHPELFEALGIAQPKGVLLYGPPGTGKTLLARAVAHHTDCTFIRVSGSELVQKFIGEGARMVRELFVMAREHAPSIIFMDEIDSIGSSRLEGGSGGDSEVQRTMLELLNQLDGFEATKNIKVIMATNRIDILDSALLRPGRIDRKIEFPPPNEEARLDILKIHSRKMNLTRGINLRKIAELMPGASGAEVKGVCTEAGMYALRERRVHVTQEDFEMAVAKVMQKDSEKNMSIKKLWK

SMILES	malachite green phosphate release [1]	AMC fluorescence [2]
Nc1ncnc2c1ncn2[C@@H]1O[C@H](COP(=O)(O)OP(=O)(O)OP(=O)(O)O)[C@@H](O)[C@H]1O [ATP]	ATPase activity was quantified using malachite green phosphate assay kits	–
Cc1cc(=O)oc2cc(NC(=O)[C@H](Cc3ccc(O)cc3)NC(=O)[C@@H](NC(=O)[C@H](CC(C)C)NC(=O)[C@H](CC(C)C)NC(=O)CCC(=O)O)C(C)C)ccc12 [Suc-LLVY-AMC] (Suc-LLVY-{AMC})	–	Peptide hydrolysis by the human proteasomes was measured using fluorogenic substrate Suc-LLVY-AMC
